# Assay results taken from ChEMBL document CHEMBL3301361, “Experimental in vitro DMPK and physicochemical data on a set of publicly disclosed compounds”.
# How the values were obtained:
# in vitro [1] = settings: hepatocytes
# physchem [2] = settings: pH 7.4 buffer
# physchem [3] = assay: physchem
# physchem [4] = assay: physchem; remark: listed apart in the source
# in vitro [5] = settings: human
# in vitro [6] = settings: SD, HW or BN, rat, plasma
# physchem [7] = settings: octan-1-ol/water
# in vitro [8] = settings: human, plasma
# in vitro [9] = settings: Beagle, dog, plasma
# in vitro [10] = settings: human, hepatocytes
hepatocyte CLint (in vitro [1]),solubility thermodynamic (physchem [2]),pKa (physchem [3]),pKa (physchem [4]),microsomal CLint (in vitro [5]; microsomes),fraction unbound at 5 h (in vitro [6]),"logD (physchem [7]; pH 7.4, LogD7.4)",fraction unbound at 5 h (in vitro [8]; PPB),fraction unbound at 5 h (in vitro [9]),microsomal CLint (in vitro [5]; liver microsomes),hepatocyte CLint (in vitro [10]),SMILES,logD (physchem [7]; pH 7.4),fraction unbound at 5 h (in vitro [8])
43.4 µL/min/1e6 cells,813 µM,2.9,6.7,101 µL/min/mg,–,–,–,–,–,–,Cc1cc(CN(CC(=O)Nc2ccc(Cl)cc2Cl)C2CCCCC2)ccc1OCC(=O)O,–,–
–,–,8.19,2.5,21.4 µL/min/mg,–,–,–,–,–,–,CCC(=O)NC(c1cccs1)c1cc(Cl)c2cccnc2c1O (stereo not drawn),–,–
–,479 µM,3.1,5.6,–,0.0014,2.62,0.0013,–,–,–,Cc1cc(CN2Cc3ccccc3C2C(=O)Nc2ccc(Cl)cc2Cl)ccc1OCC(=O)O (stereo not drawn),–,–
31 µL/min/1e6 cells,347 µM,3.1,6.2,11 µL/min/mg,–,2.41,–,–,–,–,Cc1cc(CN2Cc3ccccc3C[C@H]2C(=O)Nc2ccc(Cl)cc2Cl)ccc1OCC(=O)O,–,–
–,–,3.4,8.3,–,–,–,0.157,–,–,–,O=C(O)COc1ccc(Cl)cc1CN1CCCN(S(=O)(=O)Cc2ccccc2)CC1,–,–
–,–,3.4,–,–,–,-0.43,0.0268,0.0082,< 3 µL/min/mg,–,CCS(=O)(=O)c1ccc(-c2cc(Cl)ccc2OCC(=O)O)c(Cl)c1,–,–
13.5 µL/min/1e6 cells,–,4.2,–,–,0.03,1.35,0.0049,0.0418,23.6 µL/min/mg,< 3 µL/min/1e6 cells,CCC(CC)NC(=O)c1c(C)nn(-c2ccccc2)c1NS(=O)(=O)c1ccc(C)cc1,–,–
–,–,3.7,–,–,–,0.06,0.0052,0.0167,7 µL/min/mg,–,Cc1ccc2c(c1)c(S(=O)(=O)c1ccc(Cl)cc1)c(C)n2CC(=O)O,–,–
–,–,5,–,–,0.11,1.23,0.0736,0.107,–,–,Cc1nn(C2CCOCC2)c(NS(=O)(=O)c2ccc(C3CC3)cc2)c1C(=O)N[C@@H](C)C(C)(C)C,–,–
31 µL/min/1e6 cells,77.6 µM,5.05,8.8,–,–,1.68,0.0033,–,7 µL/min/mg,–,COc1ccc(COc2nc(Br)cnc2NS(=O)(=O)c2ccc(C)cc2)cc1OCCN(C)C,–,–
–,1.3 µM,8.61,6.17,–,–,3.6,–,–,–,–,O=C(Nc1ccc(N2CCOCC2)c(F)c1)c1nnc(Nc2ccccc2F)o1,–,–
–,–,9.5,2.4,–,0.376,2.26,0.105,–,< 3 µL/min/mg,–,COCCOc1nc(N)c2[nH]c(=O)n(Cc3ccccc3)c2n1,–,–
–,–,5,2.6,–,–,1.59,0.0018,0.0035,4 µL/min/mg,–,Cc1ccc2c(c1)c(-c1ccnc3cc(Cl)ccc13)c(C)n2CC(=O)O,–,–
–,–,2.4,3.5,–,–,1.27,0.0038,–,–,–,Cc1ccc2c(c1)c(-c1ccnc3c(C(F)(F)F)cccc13)c(C)n2CC(=O)O,–,–
–,141 µM,4.3,8.7,–,–,–,–,–,6 µL/min/mg,–,O=C(O)c1cccc(N2CCC(CN3CCC(Oc4ccc(Cl)c(Cl)c4)CC3)CC2)c1,–,–
< 3 µL/min/1e6 cells,–,3.7,9.3,–,–,–,–,–,12 µL/min/mg,–,O=C(O)COc1cccc(N2CCC(CN3CCC(Oc4ccc(Cl)c(Cl)c4)CC3)CC2)c1,–,–
–,–,4.3,8.1,–,–,2.14,–,–,–,–,O=C(NS(=O)(=O)N1CCC(N2CCC(Oc3ccc(Cl)c(Cl)c3)CC2)CC1)c1ccccc1,–,–
–,–,2.9,8.2,< 3 µL/min/mg,–,1.09,0.013,–,–,–,O=C(O)COc1cccc(C(=O)N2CCC(N3CCC(Oc4ccc(Cl)c(Cl)c4)CC3)CC2)c1,–,–
–,–,3.4,8.6,–,–,1.23,0.0499,–,< 3 µL/min/mg,–,O=C(O)c1cccc(C(=O)N2CCC(N3CCC(Oc4ccc(Cl)c(Cl)c4)CC3)CC2)c1,–,–
–,–,3.3,8.1,–,–,1.5,0.186,–,< 3 µL/min/mg,–,O=C(NS(=O)(=O)c1ccccc1)N1CCC(N2CCC(Oc3ccc(Cl)c(Cl)c3)CC2)CC1,–,–
–,–,3,8.45,11 µL/min/mg,–,1.79,0.194,–,–,–,O=C(NS(=O)(=O)c1ccc(F)cc1)N1CCC(N2CCC(Oc3ccc(Cl)c(Cl)c3)CC2)CC1,–,–

hepatocyte CLint (in vitro [1]),solubility thermodynamic (physchem [2]),pKa (physchem [3]),pKa (physchem [4]),microsomal CLint (in vitro [5]; microsomes),fraction unbound at 5 h (in vitro [6]),"logD (physchem [7]; pH 7.4, LogD7.4)",fraction unbound at 5 h (in vitro [8]; PPB),fraction unbound at 5 h (in vitro [9]),microsomal CLint (in vitro [5]; liver microsomes),hepatocyte CLint (in vitro [10]),SMILES,logD (physchem [7]; pH 7.4),fraction unbound at 5 h (in vitro [8])
–,–,2.5,8.2,–,–,2.59,0.329,–,5 µL/min/mg,–,O=C(NS(=O)(=O)c1ccc(Cl)cc1)N1CCC(N2CCC(Oc3ccc(Cl)c(Cl)c3)CC2)CC1,–,–
–,–,3.6,8.3,–,–,1.39,0.0127,–,< 3 µL/min/mg,–,COc1ccc(S(=O)(=O)NC(=O)N2CCC(N3CCC(Oc4ccc(Cl)c(Cl)c4)CC3)CC2)cc1,–,–
–,–,6.6,8.6,–,–,1.74,0.0175,–,33 µL/min/mg,–,CN(C)c1ccccc1S(=O)(=O)NC(=O)N1CCC(N2CCC(Oc3ccc(Cl)c(Cl)c3)CC2)CC1,–,–
–,–,3.2,8.7,–,–,2.2,0.179,–,3 µL/min/mg,–,Cc1ccc(S(=O)(=O)NC(=O)N2CCC(N3CCC(Oc4ccc(Cl)c(C)c4Cl)CC3)CC2)cc1,–,–
–,–,8.3,7.7,–,–,2.71,–,–,6 µL/min/mg,–,O=C(NC[C@@H](O)CN1CCC(Oc2ccc(Cl)c(Cl)c2)CC1)c1c[nH]c(=O)cc1C(F)(F)F,–,–
–,–,8.6,7.5,–,–,2.37,–,–,< 3 µL/min/mg,–,Cc1cc(Cl)ccc1OC1CCN(C[C@H](O)CNC(=O)c2c[nH]c(=O)cc2C(F)(F)F)CC1,–,–
–,–,3.18,6.4,–,0.0035,–,–,–,–,–,Nc1cc(-c2cc(C(F)(F)F)ccc2Oc2cc(F)c(S(=O)(=O)Nc3ncns3)cc2Cl)ccn1,–,–
–,–,3.19,10.1,–,0.0532,–,0.02,0.0437,–,–,O=S(=O)(Nc1ncns1)c1cc(F)c(Oc2ccc(Cl)cc2-c2ccnn2C2CNC2)cc1F,–,–
–,–,7.45,2.35,–,0.0661,–,–,–,–,–,Nc1nc(O)c(Cl)c(-c2ccccc2)n1,–,0.0477
69 µL/min/1e6 cells,–,6.2,–,23 µL/min/mg,–,1.64,0.0042,0.0049,–,–,N#Cc1ccc(NC(=O)Nc2ccccc2Br)c2nn[nH]c12,–,–
< 3 µL/min/1e6 cells,4.8 µM,5.5,–,8.86 µL/min/mg,0.0042,–,0.0041,0.0196,–,–,CN(C)S(=O)(=O)NC(=O)CCCc1c(-c2ccc(F)cc2)[nH]c2ccc(C#N)cc12,–,–
41.4 µL/min/1e6 cells,457 µM,5.9,8.5,–,0.0106,2.6,0.0029,0.0127,–,< 3 µL/min/1e6 cells,O=C(Nc1ccc(Cl)c(S(=O)(=O)N2CCNCC2)c1O)Nc1cccc(F)c1Cl [ELUBRIXIN],–,–
–,–,6.2,8.76,–,–,-0.83,0.656,–,–,–,CCn1cc(C(=O)O)c(=O)c2cc(F)c(N3CCNCC3)nc21 [ENOXACIN],–,–
–,–,6.05,9.18,–,–,-0.82,–,–,–,–,COc1c(N2CCNC(C)C2)c(F)cc2c(=O)c(C(=O)O)cn(C3CC3)c12 (stereo not drawn) [GATIFLOXACIN],–,–
–,–,5.82,8.87,–,–,-1.1,–,–,–,–,CCn1cc(C(=O)O)c(=O)c2cc(F)c(N3CCNC(C)C3)c(F)c21 (stereo not drawn) [LOMEFLOXACIN],–,–
–,87.1 µM,8.01,6.06,–,–,2.26,–,–,–,–,COc1c(C)c2c(c(O)c1C/C=C(\C)CCC(=O)OCCN1CCOCC1)C(=O)OC2 [MYCOPHENOLATE MOFETIL],–,–
–,–,6.2,–,–,0.0055,–,0.0024,0.0048,–,5.62 µL/min/1e6 cells,Nc1[nH]ncc1-c1cc(Cl)ccc1Oc1cc(F)c(S(=O)(=O)Nc2cscn2)cc1Cl [PF-05089771],–,–
6.76 µL/min/1e6 cells,–,10.7,7.88,–,–,-0.49,0.76,–,< 3 µL/min/mg,–,CN1CCN(CC(=O)N2c3ccccc3C(=O)Nc3cccnc32)CC1 [PIRENZEPINE],–,–
–,–,7.52,9.35,–,0.899,–,0.849,0.899,–,–,CCN(CC)CCNC(=O)c1ccc(NS(C)(=O)=O)cc1 [SEMATILIDE],–,–
–,–,8.35,10.2,–,–,–,–,–,–,–,CCCN(CCC)CCc1ccc(O)c2c1CC(=O)N2 [SKF-89124A],–,–
–,–,8.8,3.1,–,–,–,–,–,–,–,[O-][S+](Cc1ccccn1)c1nc2ccccc2[nH]1 (stereo not drawn) [TIMOPRAZOLE],–,–

SMILES,hepatocyte CLint (in vitro [1]),solubility thermodynamic (physchem [2]),pKa (physchem [3]),pKa (physchem [4]),microsomal CLint (in vitro [5]; microsomes),fraction unbound at 5 h (in vitro [6]),"logD (physchem [7]; pH 7.4, LogD7.4)",fraction unbound at 5 h (in vitro [8]; PPB),fraction unbound at 5 h (in vitro [9]),microsomal CLint (in vitro [5]; liver microsomes),hepatocyte CLint (in vitro [10]),logD (physchem [7]; pH 7.4),fraction unbound at 5 h (in vitro [8])
C[C@H]1CN(Cc2cc(Cl)ccc2OCC(=O)O)CCN1C(=O)Cc1ccccc1,–,–,2.5,7,< 3 µL/min/mg,0.11,–,–,0.0784,–,–,0.18,0.0262
CCCN(CCC)CCc1ccc(O)c(NC(C)=O)c1,–,–,8.75,10.8,–,–,–,–,–,36 µL/min/mg,–,–,–
CCCSc1ccc2nc(NC(=O)OC)[nH]c2c1 [ALBENDAZOLE],83.2 µL/min/1e6 cells,1.6 µM,10.5,5.88,34.7 µL/min/mg,0.0581,–,–,–,–,–,3.24,0.0457
